Data: paper PMC11513893, “Discovery of Oral Degraders of the ROS1 Fusion Protein with Potent Activity against Secondary Resistance Mutations” (Journal of Medicinal Chemistry, 2024)
Values joined by “and” are separate entries in the source; they are usually repeats but may differ in a detail not shown here. Identical values can stand only once.

Assays:
[1] = target: FES (Homo sapiens, UniProt P07332); test: Kinase assay; type: biochemical; conditions: average of duplicate measurements
[2] = Pharmacokinetics study in Sprague–Dawley rats; type: in vivo; conditions: rat, 0.5 mg/kg iv
[3] = target: LTK (Homo sapiens, UniProt P29376); test: Kinase assay; type: biochemical; conditions: average of duplicate measurements
Sequence of LTK (P29376 17-864, species assumed): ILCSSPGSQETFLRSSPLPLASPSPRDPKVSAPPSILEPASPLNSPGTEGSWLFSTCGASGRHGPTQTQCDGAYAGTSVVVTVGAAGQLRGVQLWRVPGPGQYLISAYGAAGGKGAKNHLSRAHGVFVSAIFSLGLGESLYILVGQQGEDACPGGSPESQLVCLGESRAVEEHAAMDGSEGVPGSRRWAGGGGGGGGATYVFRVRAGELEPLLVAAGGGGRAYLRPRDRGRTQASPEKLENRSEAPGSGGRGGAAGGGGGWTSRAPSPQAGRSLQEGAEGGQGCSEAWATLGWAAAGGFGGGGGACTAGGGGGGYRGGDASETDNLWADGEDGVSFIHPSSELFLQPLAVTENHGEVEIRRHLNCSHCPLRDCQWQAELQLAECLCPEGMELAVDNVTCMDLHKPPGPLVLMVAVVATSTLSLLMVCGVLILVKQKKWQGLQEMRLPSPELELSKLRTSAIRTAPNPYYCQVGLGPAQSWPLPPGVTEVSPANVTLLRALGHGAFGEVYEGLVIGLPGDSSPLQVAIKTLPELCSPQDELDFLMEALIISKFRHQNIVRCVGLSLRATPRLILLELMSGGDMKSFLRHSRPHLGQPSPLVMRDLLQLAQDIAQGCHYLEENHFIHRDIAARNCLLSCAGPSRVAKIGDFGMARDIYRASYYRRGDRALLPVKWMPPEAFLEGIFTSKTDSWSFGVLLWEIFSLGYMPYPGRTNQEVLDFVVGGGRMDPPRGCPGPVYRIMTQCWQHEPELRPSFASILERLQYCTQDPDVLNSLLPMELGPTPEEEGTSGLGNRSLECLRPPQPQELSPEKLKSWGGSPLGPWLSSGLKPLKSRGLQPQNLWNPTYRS

Sequence of FES (P07332 whole entry, species assumed): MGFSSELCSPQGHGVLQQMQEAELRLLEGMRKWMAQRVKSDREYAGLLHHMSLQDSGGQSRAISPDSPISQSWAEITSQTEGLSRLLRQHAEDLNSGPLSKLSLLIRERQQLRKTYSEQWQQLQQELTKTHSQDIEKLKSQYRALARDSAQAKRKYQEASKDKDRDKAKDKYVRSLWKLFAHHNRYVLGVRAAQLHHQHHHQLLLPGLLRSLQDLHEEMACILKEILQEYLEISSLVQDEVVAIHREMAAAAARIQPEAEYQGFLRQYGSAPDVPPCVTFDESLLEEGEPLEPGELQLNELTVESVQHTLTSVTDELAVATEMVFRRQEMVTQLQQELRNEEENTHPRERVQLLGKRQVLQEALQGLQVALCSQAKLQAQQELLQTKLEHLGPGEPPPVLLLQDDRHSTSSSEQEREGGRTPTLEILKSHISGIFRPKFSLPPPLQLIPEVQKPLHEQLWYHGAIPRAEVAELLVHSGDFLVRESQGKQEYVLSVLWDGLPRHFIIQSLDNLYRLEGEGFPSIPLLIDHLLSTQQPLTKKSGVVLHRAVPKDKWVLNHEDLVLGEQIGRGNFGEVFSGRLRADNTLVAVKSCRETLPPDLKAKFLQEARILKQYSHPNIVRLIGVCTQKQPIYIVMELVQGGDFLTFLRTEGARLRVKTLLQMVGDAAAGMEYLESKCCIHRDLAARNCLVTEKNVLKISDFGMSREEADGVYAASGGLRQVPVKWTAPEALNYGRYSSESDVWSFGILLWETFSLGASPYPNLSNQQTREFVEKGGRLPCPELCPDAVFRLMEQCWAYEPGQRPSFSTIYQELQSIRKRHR

IC50 [1]: < 10 nM and 7.5 nM
AUC (iv) [2]: 1736 ng·h/mL
IC50 [3]: 54 nM
Structure (SMILES): COc1cc(N2CCC(N3CCN(CC4CCN(c5ccc6c(c5)CN(C5CCC(=O)NC5=O)C6=O)CC4)CC3)CC2)ccc1Nc1ncc(Cl)c(Nc2ccccc2P(C)(C)=O)n1 (stereo not drawn) [9o, 3-(5-(4-((4-(1-(4-((5-Chloro-4-((2-(dimethylphosphoryl)phenyl)amino)pyrimidin-2-yl)amino)-3-methoxyphenyl)piperidin-4-yl)piperazin-1-yl)methyl)piperidin-1-yl)-1-oxoisoindolin-2-yl)piperidine-2,6-dione]
